Results as given in the supplement of paper PMC10307832.

Tests used:
Assay in all cases: relative viability (nuclei count vs DMSO), 5 days (fraction); higher = more cells survive
NCI-H596 = test system: NCI-H596
Method in brief: (§1)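 Cells from lung cancer lines were seeded into 1536-well plates and, one day later, dosed by pin tool. Treatments were either a single drug or a fixed dose of an anchor drug with five library-drug doses (not always all listed) in √10 steps. After 5 days, nuclei were stained in a one-step fixation (final 0.05% Triton X-100, 1% formaldehyde, 1 ug/ml Hoechst) and counted on 4× images, and relative viability is the treated-to-vehicle nuclei ratio, as the median of duplicate plates.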

PC-14 = test system: PC-14
Method in brief: as §1

NCI-H1355 = test system: NCI-H1355
Method in brief: as §1

NCI-H1792 = test system: NCI-H1792
Method in brief: as §1

NCI-H727 = test system: NCI-H727
Method in brief: as §1

RERF-LC-KJ = test system: RERF-LC-KJ
Method in brief: as §1

NCI-H520 = test system: NCI-H520
Method in brief: as §1

NCI-H460 = test system: NCI-H460
Method in brief: as §1

NCI-H2347 = test system: NCI-H2347
Method in brief: as §1

NCI-H2170 = test system: NCI-H2170
Method in brief: as §1

LXF-289 = test system: LXF-289
Method in brief: as §1

SK-MES-1 = test system: SK-MES-1
Method in brief: as §1

NCI-H322M = test system: NCI-H322M
Method in brief: as §1

NCI-H1755 = test system: NCI-H1755
Method in brief: as §1

NCI-H650 = test system: NCI-H650
Method in brief: as §1

NCI-H1651 = test system: NCI-H1651
Method in brief: as §1

NCI-H661 = test system: NCI-H661
Method in brief: as §1

NCI-H1563 = test system: NCI-H1563
Method in brief: as §1

NCI-H3122 = test system: NCI-H3122
Method in brief: as §1

NCI-H1915 = test system: NCI-H1915
Method in brief: as §1

Compound `C=C1C(=O)O[C@@H](CCCCCCCC)[C@@H]1C(=O)O` [C-75] + CS(=O)(=O)CCNCc1ccc(-c2ccc3ncnc(Nc4ccc(OCc5cccc(F)c5)c(Cl)c4)c3c2)o1 [Lapatinib] (partner 2 µM) has a relative viability (NCI-H596; first compound 0.08 µM) of 1.08, a relative viability (NCI-H596; first compound 0.253 µM) of 1.13 and a relative viability (NCI-H596; first compound 0.8 µM) of 1.07. The relative viability (NCI-H596; first compound 2.53 µM) was 0.87, the relative viability (NCI-H596; first compound 8 µM) was 1.14 and the relative viability (PC-14; first compound 0.08 µM) was 0.316. It also gave a relative viability (PC-14; first compound 0.253 µM) of 0.259, a relative viability (PC-14; first compound 0.8 µM) of 0.328 and a relative viability (PC-14; first compound 2.53 µM) of 0.243. For the same compound, the relative viability (PC-14; first compound 8 µM) was 0.343, the relative viability (NCI-H1355; first compound 0.08 µM) was 0.939 and the relative viability (NCI-H1355; first compound 0.253 µM) was 1.08. It also gave a relative viability (NCI-H1355; first compound 0.8 µM) of 0.884, a relative viability (NCI-H1355; first compound 2.53 µM) of 0.943 and a relative viability (NCI-H1355; first compound 8 µM) of 1.01. For the same compound, the relative viability (NCI-H1792; first compound 0.08 µM) was 0.865, the relative viability (NCI-H1792; first compound 0.253 µM) was 0.835 and the relative viability (NCI-H1792; first compound 0.8 µM) was 0.675. It also gave a relative viability (NCI-H1792; first compound 2.53 µM) of 0.68, a relative viability (NCI-H1792; first compound 8 µM) of 0.798 and a relative viability (NCI-H727; first compound 0.08 µM) of 0.881. It also gave a relative viability (NCI-H727; first compound 0.253 µM) of 1.54, a relative viability (NCI-H727; first compound 0.8 µM) of 0.711 and a relative viability (NCI-H727; first compound 2.53 µM) of 0.841. It also gave a relative viability (NCI-H727; first compound 8 µM) of 1.22, a relative viability (RERF-LC-KJ; first compound 0.08 µM) of 0.826 and a relative viability (RERF-LC-KJ; first compound 0.253 µM) of 0.866. It also gave a relative viability (RERF-LC-KJ; first compound 0.8 µM) of 0.863, a relative viability (RERF-LC-KJ; first compound 2.53 µM) of 0.872 and a relative viability (RERF-LC-KJ; first compound 8 µM) of 0.966. The relative viability (NCI-H520; first compound 0.08 µM) was 0.835, the relative viability (NCI-H520; first compound 0.253 µM) was 0.964 and the relative viability (NCI-H520; first compound 0.8 µM) was 0.703. It also gave a relative viability (NCI-H520; first compound 2.53 µM) of 0.734, a relative viability (NCI-H520; first compound 8 µM) of 0.598 and a relative viability (NCI-H460; first compound 0.08 µM) of 0.951. For the same compound, the relative viability (NCI-H460; first compound 0.253 µM) was 1.38, the relative viability (NCI-H460; first compound 0.8 µM) was 0.847 and the relative viability (NCI-H460; first compound 8 µM) was 0.884. The relative viability (NCI-H2347; first compound 0.08 µM) was 0.862, the relative viability (NCI-H2347; first compound 0.253 µM) was 0.94 and the relative viability (NCI-H2347; first compound 0.8 µM) was 0.965. For the same compound, the relative viability (NCI-H2347; first compound 2.53 µM) was 0.828, the relative viability (NCI-H2347; first compound 8 µM) was 1.02 and the relative viability (NCI-H2170; first compound 0.08 µM) was 0.269. For the same compound, the relative viability (NCI-H2170; first compound 0.253 µM) was 0.276, the relative viability (NCI-H2170; first compound 0.8 µM) was 0.255 and the relative viability (NCI-H2170; first compound 2.53 µM) was 0.216. It also gave a relative viability (NCI-H2170; first compound 8 µM) of 0.276, a relative viability (LXF-289; first compound 0.08 µM) of 0.842 and a relative viability (LXF-289; first compound 0.253 µM) of 0.872. For the same compound, the relative viability (LXF-289; first compound 0.8 µM) was 0.895, the relative viability (LXF-289; first compound 2.53 µM) was 0.925 and the relative viability (LXF-289; first compound 8 µM) was 0.908. The relative viability (SK-MES-1; first compound 0.08 µM) was 0.442, the relative viability (SK-MES-1; first compound 0.253 µM) was 0.441 and the relative viability (SK-MES-1; first compound 0.8 µM) was 0.397. It also gave a relative viability (SK-MES-1; first compound 8 µM) of 0.429, a relative viability (NCI-H322M; first compound 0.08 µM) of 0.597 and a relative viability (NCI-H322M; first compound 0.253 µM) of 0.744. The relative viability (NCI-H322M; first compound 0.8 µM) was 0.59, the relative viability (NCI-H322M; first compound 2.53 µM) was 0.568 and the relative viability (NCI-H322M; first compound 8 µM) was 0.629. For the same compound, the relative viability (NCI-H1755; first compound 0.08 µM) was 1.01, the relative viability (NCI-H1755; first compound 0.253 µM) was 0.946 and the relative viability (NCI-H1755; first compound 0.8 µM) was 0.958. For the same compound, the relative viability (NCI-H1755; first compound 2.53 µM) was 0.743, the relative viability (NCI-H1755; first compound 8 µM) was 1.06 and the relative viability (NCI-H650; first compound 0.08 µM) was 1.02. It also gave a relative viability (NCI-H650; first compound 0.253 µM) of 0.86, a relative viability (NCI-H650; first compound 0.8 µM) of 0.803 and a relative viability (NCI-H650; first compound 2.53 µM) of 0.855. The relative viability (NCI-H650; first compound 8 µM) was 0.826, the relative viability (NCI-H1651; first compound 0.08 µM) was 0.706 and the relative viability (NCI-H1651; first compound 0.253 µM) was 0.853. The relative viability (NCI-H1651; first compound 0.8 µM) was 0.816, the relative viability (NCI-H1651; first compound 2.53 µM) was 0.747 and the relative viability (NCI-H1651; first compound 8 µM) was 0.81. The relative viability (NCI-H661; first compound 0.08 µM) was 0.51, the relative viability (NCI-H661; first compound 0.253 µM) was 0.554 and the relative viability (NCI-H661; first compound 0.8 µM) was 0.43. The relative viability (NCI-H661; first compound 2.53 µM) was 0.396, the relative viability (NCI-H661; first compound 8 µM) was 0.407 and the relative viability (NCI-H1563; first compound 0.08 µM) was 0.886. It also gave a relative viability (NCI-H1563; first compound 0.253 µM) of 0.979, a relative viability (NCI-H1563; first compound 0.8 µM) of 0.881 and a relative viability (NCI-H1563; first compound 2.53 µM) of 0.998. For the same compound, the relative viability (NCI-H1563; first compound 8 µM) was 1, the relative viability (NCI-H3122; first compound 0.08 µM) was 1.03 and the relative viability (NCI-H3122; first compound 0.253 µM) was 1.02. For the same compound, the relative viability (NCI-H3122; first compound 0.8 µM) was 0.997, the relative viability (NCI-H3122; first compound 8 µM) was 1.02 and the relative viability (NCI-H1915; first compound 0.08 µM) was 0.952. It also gave a relative viability (NCI-H1915; first compound 0.253 µM) of 0.945, a relative viability (NCI-H1915; first compound 0.8 µM) of 0.89 and a relative viability (NCI-H1915; first compound 2.53 µM) of 0.917. The relative viability (NCI-H1915; first compound 8 µM) was 0.909.
